Test results: article PMC8989888, “Development of optimized drug-like small molecule inhibitors of the SARS-CoV-2 3CL protease for treatment of COVID-19” (Nature Communications, 2022)
Values joined by “and” are separate entries in the source; they are usually repeats but may differ in a detail not shown here. Equal values may be shown once.

Tested on: SARS-CoV-2
Assay: microbe, parasite or virus in culture
Type: cell-based

SMILES | inhibition of SARS-CoV-2 (Figure S17A dose-response, replicate values)
CC(C)C[C@H](NC(=O)OCc1cccc(Cl)c1)C(=O)N[C@@H](C[C@@H]1CCNC1=O)C(O)S(=O)(=O)O (stereo partly shown) [EB46] | 0 (10×) and 100 (6×) and 37.5 (2×) and 50 and 12.5 (2×)
O=C(N[C@@H](CC1CCCCC1)C(=O)N[C@@H](C[C@@H]1CCNC1=O)C(O)S(=O)(=O)O)OCc1cccc(Cl)c1 (stereo partly shown) [EB48] | 0 (11×) and 68.75 and 75 and 93.75 and 25 (3×) and 50 and 37.5 and 12.5 (2×)
CC(C)C[C@H](NC(=O)OCc1ccccc1Cl)C(=O)N[C@@H](C[C@@H]1CCNC1=O)C(O)S(=O)(=O)O (stereo partly shown) [EB54] | 0 (6×) and 100 (6×) and 50 (3×) and 12.5 (4×) and 25 (2×)
CC(C)C[C@H](NC(=O)OCc1cccc2ccccc12)C(=O)N[C@@H](C[C@@H]1CCNC1=O)C(O)S(=O)(=O)O (stereo partly shown) [EB55] | 0 (10×) and 100 (4×) and 93.75 (2×) and 12.5 (5×)
CC(C)C[C@H](NC(=O)OCc1ccc2ccccc2c1)C(=O)N[C@@H](C[C@@H]1CCNC1=O)C(O)S(=O)(=O)O (stereo partly shown) [EB56] | 0 (5×) and 12.5 (8×) and 93.75 (3×) and 87.5 (3×) and 50 and 25
CC(C)CC(NC(=O)OCc1ccccc1)C(=O)NC(CC1CCNC1=O)C(O)S(=O)(=O)O (stereo not shown) [GC376, reference compound] | 0 (14×) and 87.5 and 93.75 and 100 and 37.5 and 62.5 and 68.75 and 12.5
O=C(N[C@@H](CC1CCCCC1)C(=O)N[C@@H](C[C@@H]1CCNC1=O)C(O)S(=O)(=O)O)OCc1ccccc1 (stereo partly shown) [SL-4-241] | 0 (14×) and 100 (2×) and 81.25 and 25 (2×) and 12.5 (2×)
